Assay results taken from PMC10599030, “[1, 8]-Naphthyridine derivatives as dual inhibitor of alkaline phosphatase and carbonic anhydrase” (BMC Chemistry, 2023).
“And” between values parts separate entries of the source, which are not always exact repeats. Equal values may be shown once. Read-outs that look alike come from different tables or passages of the source.

What was measured:
Assay type in all cases: biochemical
h-CAII = molecular target: T1, h-CAII (Homo sapiens, UniProt P00918); assay: Inhibition assay for carbonic anhydrase II; conditions: for IC50: n = 3, read-out: CAII IC50 (µM) ± SEM
T1 construct: His (N); host or cells: HEK 293 T
Experimental: (§1) Expression of enzyme protein was done according to previously reported protocol. Briefly, transfection was carried out for CA-II, IX, and XII by using vectors pCMV3-N-His, pCMV3-SP-HIS-ORF, and pCMV3-N-His obtained from Sino Biologicals Inc., respectively. […] When cells gained about 80–90% confluency, they were washed twice with PBS and transfected with 0.2 µg plasmid solution. Cells were incubated for 6 h in 5% CO2 incubator, followed by the addition of fresh growth media. Cells were again incubated for 24 h. Hygromycin B (0.2 mg/mL) was used as a selection antibiotic for transfected cells. Cells were harvested after five days and lysed. Then desired proteins were purified via Ni–NTA resin using imidazole as affinity. SDS PAGE was carried out to confirm the molecular weight of purified protein.
(§2) The CA isozymes inhibition assay was performed according to the reported method after some modifications. Assay buffer was prepared that contained 50 mM tris-sulfate, 0.1 mM ZnCl2, and pH was adjusted at 7.6. Initially, 60 µL assay buffer was added in each well of 96 wells plate, 10 µL test compound (final concentration 100 µM), and followed by the addition of 10 µL working enzyme solution. The reaction mixture was incubated for 10 min at 37 °C. […] Then 20 µL of the substrate (6 mM) was added to the reaction mixture to initiate the reaction. The reaction mixture was incubated at 37 °C for 30 min, and absorbance was measured again. […] Results were reported as the mean of triplicate experiments (± SEM). The % inhibition was calculated by following the formula. Inhibition%=100-ODtestcompound/ODcontrol×100

h-CAXII = molecular target: T2, h-CAXII (Homo sapiens, UniProt O43570); assay: Inhibition assay for carbonic anhydrase XII; conditions: for IC50: n = 3, read-out: CAXII IC50 (µM) ± SEM
T2 construct: His (N); host or cells: HEK 293 T
T2 sequence (O43570 25-354): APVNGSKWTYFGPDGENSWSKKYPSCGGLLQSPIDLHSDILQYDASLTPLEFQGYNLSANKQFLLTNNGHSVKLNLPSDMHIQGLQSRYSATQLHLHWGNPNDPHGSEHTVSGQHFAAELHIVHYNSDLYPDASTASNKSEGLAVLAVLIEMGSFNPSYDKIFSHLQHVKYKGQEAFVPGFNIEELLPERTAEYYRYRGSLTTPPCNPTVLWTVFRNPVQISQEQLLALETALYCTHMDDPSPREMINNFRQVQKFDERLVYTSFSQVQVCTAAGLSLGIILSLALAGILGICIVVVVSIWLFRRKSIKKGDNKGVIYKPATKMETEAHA
Experimental: as §1, §2

b-TNAP = molecular target: T3, b-TNAP (Bos taurus, UniProt P09487); assay: Alkaline phosphatase inhibition assay (b-TNAP, p-NPP substrate); conditions: for IC50: n = 3, read-out: b-TNAP IC50 (µM) ± SEM; for inhibition at 100 µM: read-out: b-TNAP % Inhibition
T3 sequence (P09487 18-524): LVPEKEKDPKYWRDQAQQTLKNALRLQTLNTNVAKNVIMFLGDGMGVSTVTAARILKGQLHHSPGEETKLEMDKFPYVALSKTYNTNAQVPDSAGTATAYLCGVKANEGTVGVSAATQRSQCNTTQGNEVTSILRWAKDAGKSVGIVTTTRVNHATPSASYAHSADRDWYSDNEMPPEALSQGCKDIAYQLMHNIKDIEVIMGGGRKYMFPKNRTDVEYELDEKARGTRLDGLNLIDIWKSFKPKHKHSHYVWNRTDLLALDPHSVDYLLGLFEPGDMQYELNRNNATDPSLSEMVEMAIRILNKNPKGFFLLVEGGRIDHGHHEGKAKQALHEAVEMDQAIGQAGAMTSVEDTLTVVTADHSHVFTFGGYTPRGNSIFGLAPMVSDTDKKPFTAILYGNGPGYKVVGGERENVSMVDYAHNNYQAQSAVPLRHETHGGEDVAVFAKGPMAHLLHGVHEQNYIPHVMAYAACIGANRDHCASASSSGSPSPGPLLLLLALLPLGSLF
Experimental: The assay was based on previously reported protocol. […] All the solutions were made in assay buffer comprising Tris-HCl (50 mM), ZnCl2 (0.1 mM) and MgCl2 (5 mM) and pH was adjusted at 9.5. […] Assay was started by adding 70 μL of assay buffer in each well of 96 wells flat bottom clear microplate, followed by adding 10 μL of test compound and 10 μL of working enzyme solution. The reaction mixture was incubated at 37 °C for 10 min and absorbance was measured by a microplate reader (Bio-[…], Instruments, Inc. USA) at 405 nm. The reaction was started by adding 10 μL of 5 mM p-NPP (para-nitrophenolphosphate) as substrate. […] Following formula was used to calculate the percentage of inhibition of test compounds.

h-CAIX = molecular target: T4, h-CAIX (Homo sapiens, UniProt Q16790); assay: Inhibition assay for carbonic anhydrase IX; conditions: for IC50: n = 3, read-out: CAIX IC50 (µM) ± SEM
T4 construct: His (N); host or cells: HEK 293 T
Experimental: as §1, §2

c-IAP = c-IAP (Bos taurus, UniProt P19111); assay: Alkaline phosphatase inhibition assay (c-IAP, p-NPP substrate)
Chain of c-IAP (P19111 20-506): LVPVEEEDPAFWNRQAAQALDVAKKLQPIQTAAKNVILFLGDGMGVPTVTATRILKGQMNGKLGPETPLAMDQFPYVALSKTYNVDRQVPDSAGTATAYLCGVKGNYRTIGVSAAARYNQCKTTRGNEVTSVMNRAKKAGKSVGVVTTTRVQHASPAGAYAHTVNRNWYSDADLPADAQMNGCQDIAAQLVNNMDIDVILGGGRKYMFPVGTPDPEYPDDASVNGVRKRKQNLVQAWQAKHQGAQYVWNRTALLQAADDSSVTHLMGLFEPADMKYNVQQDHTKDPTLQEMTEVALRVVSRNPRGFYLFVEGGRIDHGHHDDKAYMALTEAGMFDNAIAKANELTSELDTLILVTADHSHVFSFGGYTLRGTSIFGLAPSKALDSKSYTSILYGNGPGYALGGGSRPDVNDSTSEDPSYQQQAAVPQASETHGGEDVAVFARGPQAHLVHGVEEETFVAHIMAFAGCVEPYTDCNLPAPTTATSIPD
Experimental: [1, 8]-Naphthyridine derivatives were screened for inhibitor potential towards b-TNAP and c-IAP. The assay was based on previously reported protocol. […]. All the solutions were made in assay buffer comprising Tris–HCl (50 mM), ZnCl2 (0.1 mM) and MgCl2 (5 mM) and pH was adjusted at 9.5. Working solutions of both enzymes were prepared in assay buffer containing 50% of glycerol. The final concentration of b-TNAP and c-IAP were kept at 0.025 U/mL and 0.05 U/mL, respectively. Assay was started by adding 70 µL of assay buffer in each well of 96 wells flat bottom clear microplate, followed by adding 10 µL of test compound and 10 µL of working enzyme solution. The reaction mixture was incubated at 37 °C for 10 min and absorbance was measured by a microplate reader (Bio-TekELx 800™, Instruments, Inc. USA) at 405 nm. The reaction was started by adding 10 µL of 5 mM p-NPP (para-nitrophenolphosphate) as substrate. […]. Following formula was used to calculate the percentage of inhibition of test compounds. Inhibition%=100-ODtestcompound/ODcontrol×100

[1] = 100 µM final concentration of compound

SMILES	IC50 (h-CAII)	IC50 (h-CAXII)	IC50 (b-TNAP)	IC50 (h-CAIX)	other results
Cc1ccc(-c2cc3cccnc3n3cccc23)cc1 [Compound 1d]		2.4 ± 0.98 µM		1.36 ± 0.48 µM	Activity against CA-II in words (h-CAII): inactive; Activity against CA-XII in words (h-CAXII): marked activity; inhibition at 100 µM (b-TNAP): < 30%; Activity against CA-IX in words (h-CAIX): marked activity
COc1ccc(-c2cc3cccnc3n3cccc23)c(C)c1 [Compound 1h]	1.46 ± 0.96 µM	0.8 ± 0.69 µM		0.74 ± 0.51 µM	Activity against b-TNAP in words (b-TNAP): loss of activity; inhibition at 100 µM (b-TNAP; [1]): 33%; Activity against c-IAP in words (c-IAP): complete loss of activity; inhibition at 100 µM (c-IAP; read-out: c-IAP % Inhibition): 37%
Cc1cccc(-c2cc3cccnc3n3cccc23)c1 [Compound 1i]		0.46 ± 0.12 µM		0.87 ± 0.51 µM	Activity against CA-II in words (h-CAII): inactive; Activity against CA-XII in words (h-CAXII): significant activity; Activity against b-TNAP in words (b-TNAP): loss of activity; inhibition at 100 µM (b-TNAP): < 30%; Activity against CA-IX in words (h-CAIX): significant activity
Fc1ccccc1-c1cc2cccnc2n2cccc12 [Compound 1j]	2.14 ± 0.3 µM	0.51 ± 0.26 µM		1.65 ± 0.98 µM	Activity against b-TNAP in words (b-TNAP): loss of activity; inhibition at 100 µM (b-TNAP): < 20%
c1cnc2c(c1)cc(-c1ccsc1)c1cccn12 [Compound 1k]	1.63 ± 0.55 µM	1.8 ± 0.42 µM	0.36 ± 0.07 µM		CAIX % inhibition (h-CAIX; [1]): 35.1%; inhibition at 100 µM (h-CAIX; [1]): < 50%
N[C@@H](Cc1ccccc1)C(=O)O [L-phenyl alanine, reference compound]					IC50 (c-IAP; n = 3, read-out: c-IAP IC50 (µM) ± SEM): 80.21 ± 0.001 µM

Second part, led by results:

IC50 (h-CAII)	IC50 (h-CAXII)	IC50 (b-TNAP)	IC50 (h-CAIX)	SMILES	other results
1.28 ± 0.16 µM	0.32 ± 0.07 µM	0.38 ± 0.09 µM	0.86 ± 0.47 µM	c1ccc(-c2cc3cccnc3n3cccc23)cc1 [Compound 1a]	
1.26 ± 0.44 µM	1.51 ± 0.72 µM	0.122 µM and 0.12 µM		CC(C)(C)c1ccc(-c2cc3cccnc3n3cccc23)cc1 [Compound 1b]	Times more potent as compared to Levamisole (standard inhibitor of TNAP) (b-TNAP; ratio of IC50 values): 160 times
0.9 ± 0.5 µM	0.96 ± 0.28 µM	1.01 ± 0.31 µM	0.7 ± 0.27 µM	Fc1ccc(-c2cc3cccnc3n3cccc23)cc1 [Compound 1c]	
0.44 ± 0.19 µM	0.51 ± 0.41 µM	0.32 ± 0.11 µM	1.61 ± 0.26 µM	CCCCc1cc2cccnc2n2cccc12 [Compound 1e]	
	4.3 ± 2.2 µM	0.14 ± 0.12 µM	0.99 ± 0.12 µM	COc1ccc(-c2cc3cccnc3n3cccc23)cc1 [Compound 1f]	
0.1 ± 0.04 µM	3.05 ± 0.92 µM	0.63 ± 0.47 µM	0.11 ± 0.03 µM	COc1cccc(-c2cc3cccnc3n3cccc23)c1 [Compound 1g]	
1.99 ± 0.71 µM	1.5 ± 0.31 µM	0.24 ± 0.06 µM	3.2 ± 1.52 µM	c1cnc2c(c1)cc(C1CCCCC1)c1cccn12 [Compound 1l]	
		19.21 ± 0.001 µM		c1ccc([C@H]2CN3CCSC3=N2)cc1 [Levamisole, reference compound]	
